Source: the supplement of paper PMC9334596
Where a name gives a salt, the structure may show the parent alone.

System: mPer2Luc MEF
Assay: PER2::LUC luminescence relative to vehicle control (fold of vehicle); higher = higher PER2::LUC reporter signal
Experimental: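 Secondary dose-response validation of 72 circadian-modulating compounds in mPer2Luc MEFs, threefold dilution series of six doses from 10 uM down to 0.04 uM. PER2::LUC luminescence read at 24 h and 30 h after treatment, normalised to vehicle (DMSO) control.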

[1] = time after treatment: 24-hour, concentration: 0.04μM
[2] = time after treatment: 24-hour, concentration: 0.37μM
[3] = time after treatment: 24-hour, concentration: 3.33μM
[4] = time after treatment: 24-hour, concentration: 10μM
[5] = time after treatment: 30-hour, concentration: 0.04μM
[6] = time after treatment: 30-hour, concentration: 0.37μM
[7] = time after treatment: 30-hour, concentration: 3.33μM
[8] = time after treatment: 30-hour, concentration: 10μM

SMILES | PER2::LUC luminescence [1] | PER2::LUC luminescence [2] | PER2::LUC luminescence [3] | PER2::LUC luminescence [4] | PER2::LUC luminescence [5] | PER2::LUC luminescence [6] | PER2::LUC luminescence [7] | PER2::LUC luminescence [8]
Cn1cc(/C=C/C(=O)c2cccc(F)c2)cc1/C=C/C(=O)NO [MC1568] | 0.933 | 0.956 | 0.979 | 1.34 | 0.907 | 0.894 | 0.843 | 1.04
Cc1cccc(C#Cc2ccccc2)n1 [MPEP Hydrochloride] | 1.11 | 1.19 | 1.33 | 1.39 | 1.22 | 1.41 | 1.57 | 1.73
C=CC(=O)Nc1cccc(Nc2nc(Nc3ccc(Oc4ccnc(C(=O)NC)c4)cc3)ncc2F)c1 [CNX-774] | 0.953 | 0.958 | 0.839 | 0.44 | 1.01 | 0.966 | 0.857 | 0.586
CCc1cc2c(cc1N1CCC(N3CCOCC3)CC1)C(C)(C)c1[nH]c3cc(C#N)ccc3c1C2=O | 0.92 | 0.909 | 0.957 | 0.902 | 0.817 | 0.859 | 0.859 | 0.83
O=C(c1ccc(F)c(F)c1Nc1ccc(I)cc1F)N1CC(O)([C@@H]2CCCCN2)C1 [Cobimetinib] | 0.419 | 0.495 | 0.11 | 0.015 | 0.459 | 0.437 | 0.168 | 0.007
CC(C)NC[C@@H](C(=O)N1CCN(c2ncnc3c2[C@H](C)C[C@H]3O)CC1)c1ccc(Cl)cc1 [GDC-0068] | 0.898 | 0.743 | 0.674 | 0.481 | 0.917 | 0.776 | 0.619 | 0.434
COc1cc(-c2nc3ccccc3s2)ccc1O [YL-109] | 1.05 | 1.08 | 1.31 | 1.39 | 1.13 | 1.16 | 1.42 | 1.53
O=c1sn(-c2cccc3ccccc23)c(=O)n1Cc1ccccc1 [Tideglusib] | 0.908 | 0.902 | 0.864 | 0.879 | 0.9 | 0.856 | 0.886 | 0.891
CCOC(=O)N1c2ccc(C(F)(F)F)cc2[C@@H](N(Cc2cc(C(F)(F)F)cc(C(F)(F)F)c2)C(=O)OC)C[C@H]1CC | 0.989 | 0.984 | 0.939 | 0.99 | 0.935 | 0.917 | 0.959 | 0.943
NCC(=O)N1C[C@H](NC(=O)c2ccccc2)C[C@H]1C(=O)O [GAP-134 (Hydrochloride)] | 0.994 | 0.988 | 1.05 | 1.04 | 1.04 | 1.04 | 1.06 | 1.02
COc1cc(OC)cc(C(=O)Nc2ccc(Cl)c(-c3nc4ccc(N(C)C)cc4[nH]3)c2)c1 [HhAntag] | 1.03 | 1.07 | 1.03 | 1.12 | 0.988 | 1.04 | 1.12 | 1.44
CC(C)c1cnn2c(NCc3ccccc3)cc(NCCCCCCN)nc12 [BS-181] | 1.05 | 0.946 | 0.807 | 0.33 | 0.972 | 0.943 | 0.934 | 0.422
